In patent publication US7598341B2, “Molecules that selectively home to vasculature of premalignant or malignant lesions of the pancreas and other organs” (Burnham Institue for Medical Research, priority 2003, dated 2009):
“Also recorded” adds a separate entry of the source.

Tests used:
[1] = test system: endothelial cell and pericyte markers (MECA-32, NG2); assay: Co-localization of fluorescein-conjugated peptides with vascular markers; format: in vivo, mouse; settings: fluorescein-conjugated peptide i.v.; for co-localization with endothelial cell and pericyte markers in RIP1-Tag2 islet lesions: MECA-32, NG2, FIG. 3
Procedure: To confirm that intravenous administration of phage libraries selects for phage carrying peptides that bind to endothelial molecules specific for the target vasculature, tissues were collected following i.v. infusion with the various fluorescein-conjugated peptides, sectioned, and evaluated with endothelial cell markers.
(§1) For immunohistochemistry, frozen slides were pre-incubated with blocking buffer (1×PNB from NEN Biosciences) for one hour, washed several times in 1×PBS and incubated with the primary antibody of interest overnight at 4° C. The cell-specific antibodies used were rat monoclonal anti-mouse CD31 (1:200; BD Pharmingen), rat monoclonal anti-mouse MECA-32 (1:200; BD Pharmingen), rabbit polyclonal anti-mouse NG2 (1:200; Chemicon), and rat monoclonal anti-mouse PDGFRb (CD140b) (1:200; eBioscience). The corresponding secondary antibodies; Cy-3 donkey anti-rabbit IgG and Rhodamine Red donkey anti-rat IgG (Jackson ImmunoResearch), were used at a 1:200 dilution and incubated for one hour at room temperature. The following species-matched immunoglobulins were used as negative controls; rabbit IgG (Vector Laboratories) and rat IgG (Jackson ImmunoResearch) at a 1:200 dilution. The slides were washed several times in 1×PBS and mounted in Vectashield Mounting Medium with DAPI (Vector Laboratories). Hematoxylin and eosin (H&E) staining was performed for histological grading of adjacent sections by standard methods, and lesions were graded as previously described (Lopez and Hanahan, 2002).
The primary analysis involved immunostaining with a mouse pan-endothelial cell antigen (MECA-32) antibody that recognizes a dimer of 50-55 kDa protein subunits present on all endothelial cells (Hallman et al., 1995; Leppink et al., 1989) (FIG. 3 B,C,H,I,N,O). Additional analyses involved immunostaining to reveal CD31/PE-CAM, or systemic infusion of a fluorescent-labeled lectin that binds to the endothelial lumen. In addition, tissue sections from peptide-infused mice were stained with an antibody recognizing NG2, a marker of the neovascular pericytes (Schlingemann et al., 1990, 1991) (FIG. 3 E,F,K,L,Q,R).

[2] = test system: RIP1-Tag2 angiogenic islets and tumors; assay: Localization of fluorescein-conjugated peptides after intravenous injection; format: in vivo, mouse; settings: for localization in RIP1-Tag2 angiogenic islets / localization in RIP1-Tag2 tumors / localization in normal islets: fluorescein-conjugated peptide i.v., 7 minutes circulation, FIG. 2; for homing selectivity of purified peptides: i.v. into 8-week or 12-week old RIP-Tag2 mice; for homing to normal islets, kidney, brain, liver, lung or spleen: purified peptides i.v.
Procedure: Fluorescein-conjugated peptides corresponding to phage insert sequences were synthesized using an automated peptide synthesizer with standard solid-phase fluorenylmethoxycarbonyl (Fmoc) chemistry. […] of each individual fluorescein-conjugated peptide was injected intravenously into the tail vein of RIP1-Tag2 mice at 8 or 12 weeks of age, and into normal BL/6 mice. The peptide was allowed to circulate for 7 minutes, followed by heart perfusion first with PBS and then with Zn-buffered formalin. The RIP1-Tag2 pancreas and control organs (brain, kidney, liver, lung and spleen) were removed, fixed for one hour in formalin, washed with 1×PBS, placed in 30% sucrose for several hours, washed with 1×PBS, and embedded in OCT (Tissue-Tek). Each peptide was injected into at least three individual RIP1-Tag2 or normal mice at each of the different stages. To examine the localization of injected fluorescein-conjugated peptides, frozen sections ([…] thick) were cut on a cryostat, mounted in Vectashield Mounting Medium with DAPI (Vector Laboratories) and visualized under an inverted fluorescent microscope or a confocal microscope (Zeiss LSM 510 META).

[3] = test system: squamous cell carcinoma in a K14-HPV16 mouse; assay: Homing to HPV tumor; format: in vivo; settings: FIG. 4A
Procedure: (§2) To determine whether phage identified to home to pancreatic tumors also home to other types of tumors, these phage were tested using animals having various types of tumors, including bTC3 subcutaneous tumor and MDA MB-435 subcutaneous tumor. bTC3 transplant tumors arise following subcutaneous inoculation of nude mice with cultured islet tumor-derived (bTC3) cells (Efrat et al., 1988). Since the vasculature of a subcutaneously grown bTC3 tumor derives from skin, we also tested another subcutaneous transplant tumor, arising from inoculation of the MDA-MB-435 human breast carcinoma cell line. Finally, K14-HPV16 mice, another well-studied transgenic mouse model of cancer that develop tumors of the squamous epithelial cells of the skin (Arbeit et al., 1994; Coussens et al., 1996), was used to compare RIP1-Tag2 islet tumors to a tumor with similar multistage pathogenesis arising in a different tissue.
(§3) Tumors were dissected from the ear or chest of K14-HPV16 mice. For the bTC3 allograft models, 10^6 bTC3 tumor cells (Efrat et al., 1988) were inoculated under the skin of the rear flank of nu/nu mice in a BALB/c background and allowed to grow until approximately 5 mm in size, and then used for experimental analysis. MDA-MB-435 xenograft models were generated by inoculating 10^6 tumor cells subcutaneously in the chest of nu/nu Balb/c mice. Tumors were used for the homing/binding experiments at 8-12 weeks after injection of the tumor cells.

[4] = test system: MDA MB-435 subcutaneous tumor; assay: Homing to MDA-MB-435 subcutaneous tumor; format: in vivo, mouse; settings: fluorescein-conjugated peptide i.v., FIG. 4B
Procedure: as §2, §3

[5] = test system: bTC3-derived subcutaneous transplant tumor in a nude mouse; assay: Homing to bTC3 subcutaneous tumor; format: in vivo; settings: FIG. 4A
Procedure: as §2, §3

[6] = test system: RIP1-Tag2 pancreatic tumor, bTC3-derived subcutaneous transplant tumor, K14-HPV16 squamous cell carcinoma; assay: Relative homing efficiency of individual phage in various tumor models (FIG. 4A); format: in vivo, mouse; settings: phage from the RIP1-Tag2 tumor screen
Procedure: as §2, §3
FIG. 4A is bar graph showing homing efficiency of individual phage to a pancreatic tumor in a RIP1-Tag2 mouse, a bTC3-derived subcutaneous transplant tumor in a nude mouse, and a squamous cell carcinoma in a K14-HPV16 mouse.

[7] = test system: RIP1-Tag2 angiogenic islets and tumors; assay: In vivo homing of phage (pools and individual phage) in RIP1-Tag2 mice; set-up: species or system mouse; settings: phage-displayed peptide, i.v., FIG. 1D, with ex vivo binding patterns
Procedure: For in vivo selection of phage that home specifically to premalignant lesions and malignant tumors, the ex vivo pre-selected phage pool was injected intravenously into 12 week old RIP1-Tag2 mice through the tail vein, allowed to circulate for 7 minutes and heart-perfused with PBS to remove unbound intravascular phage. As the vasculature is preferentially available for the phage to bind in this selection, there is an enrichment of phage that bind to the endothelium of the target tissue.
The RIP1-Tag2 lesions and control tissues (brain, kidney, spleen, lung, ‘white’ pancreas lacking hemorrhagic lesions and liver were excised to allow for comparison of homing efficiencies. Cell suspensions were prepared by mechanical disruption of the tissues. Tissues were washed to remove unbound phage, and the bound phage rescued and amplified by adding E. coli. The phage pool was re-injected into mice at a similar disease stage, and the cycle repeated. In each experiment, non-recombinant control phage were used as a control for relative selectivity.
Sets of 96 phage clones were randomly collected from each homing phage population that selectively homed to premalignant angiogenic islets or pancreatic tumor cells. Peptide-encoding DNA inserts from collected phage clones were amplified by PCR, and the PCR products sequenced. Phage representing the most frequently appearing peptide motifs were individually tested for their ability to selectively home to the lesions on which they were selected, relative to other stages in the tumorigenesis pathway and to control organs. Six of the phage selected for further analysis were from the tumor screen (referred to as KAA, RGR, RSR, VGVA, VGVG and KAR), and one (EYQ) was picked from the angiogenic screen.

[8] = molecular target: T1, PDGFRβ (Mus musculus, UniProt P05622); assay: Co-localization of i.v. injected fluorescein-conjugated peptide with PDGFRβ immunostaining in RIP1-Tag2 tumors; format: in vivo; settings: tissue sections from RIP1-Tag2 tumors, FIG. 5B
T1 construct: from tissue; host or cells: pancreatic islet tumors of RIP1-Tag2 transgenic mice
T1 sequence (P05622 32-1098): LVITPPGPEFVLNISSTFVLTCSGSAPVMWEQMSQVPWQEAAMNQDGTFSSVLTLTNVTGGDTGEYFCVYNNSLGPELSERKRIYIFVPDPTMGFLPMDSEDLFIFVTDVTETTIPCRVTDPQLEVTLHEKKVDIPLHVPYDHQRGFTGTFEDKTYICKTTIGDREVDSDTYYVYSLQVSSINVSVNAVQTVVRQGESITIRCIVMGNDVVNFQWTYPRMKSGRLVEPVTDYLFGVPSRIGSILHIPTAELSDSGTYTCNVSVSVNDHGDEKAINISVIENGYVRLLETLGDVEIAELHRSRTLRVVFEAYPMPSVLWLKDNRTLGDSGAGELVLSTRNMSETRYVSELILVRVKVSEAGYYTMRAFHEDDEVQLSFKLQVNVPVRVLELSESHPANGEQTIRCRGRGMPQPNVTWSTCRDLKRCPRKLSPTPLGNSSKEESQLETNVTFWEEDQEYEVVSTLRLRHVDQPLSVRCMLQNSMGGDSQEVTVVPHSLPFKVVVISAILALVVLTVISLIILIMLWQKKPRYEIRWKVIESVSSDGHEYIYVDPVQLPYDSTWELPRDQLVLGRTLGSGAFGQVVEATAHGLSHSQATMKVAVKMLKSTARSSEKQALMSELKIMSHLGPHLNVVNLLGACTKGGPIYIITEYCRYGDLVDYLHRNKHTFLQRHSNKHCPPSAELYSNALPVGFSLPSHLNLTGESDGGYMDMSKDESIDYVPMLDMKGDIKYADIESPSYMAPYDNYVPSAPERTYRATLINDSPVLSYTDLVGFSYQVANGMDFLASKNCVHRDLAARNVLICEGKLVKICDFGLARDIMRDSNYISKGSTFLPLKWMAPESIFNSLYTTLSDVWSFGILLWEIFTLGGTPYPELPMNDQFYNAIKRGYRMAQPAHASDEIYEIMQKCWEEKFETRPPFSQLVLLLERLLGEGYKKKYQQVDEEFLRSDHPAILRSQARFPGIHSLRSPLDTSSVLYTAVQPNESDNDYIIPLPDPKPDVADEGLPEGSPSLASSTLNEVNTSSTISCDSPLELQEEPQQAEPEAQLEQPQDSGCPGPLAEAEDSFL
Procedure: as §1
FIG. 5A is a bar graph showing binding of RGR or RSR phage to 293 cells transfected with either PDGFRβ, VEGFR2, or non-transfected cells.

[9] = molecular target: T2, PDGFRβ (Homo sapiens, UniProt P09619); assay: Phage binding to transfected 293T cells (plaque assay); settings: FIG. 5A
T2 construct: expressed in transfected cells; host or cells: 293T cells
T2 sequence (P09619 33-1106, species assumed): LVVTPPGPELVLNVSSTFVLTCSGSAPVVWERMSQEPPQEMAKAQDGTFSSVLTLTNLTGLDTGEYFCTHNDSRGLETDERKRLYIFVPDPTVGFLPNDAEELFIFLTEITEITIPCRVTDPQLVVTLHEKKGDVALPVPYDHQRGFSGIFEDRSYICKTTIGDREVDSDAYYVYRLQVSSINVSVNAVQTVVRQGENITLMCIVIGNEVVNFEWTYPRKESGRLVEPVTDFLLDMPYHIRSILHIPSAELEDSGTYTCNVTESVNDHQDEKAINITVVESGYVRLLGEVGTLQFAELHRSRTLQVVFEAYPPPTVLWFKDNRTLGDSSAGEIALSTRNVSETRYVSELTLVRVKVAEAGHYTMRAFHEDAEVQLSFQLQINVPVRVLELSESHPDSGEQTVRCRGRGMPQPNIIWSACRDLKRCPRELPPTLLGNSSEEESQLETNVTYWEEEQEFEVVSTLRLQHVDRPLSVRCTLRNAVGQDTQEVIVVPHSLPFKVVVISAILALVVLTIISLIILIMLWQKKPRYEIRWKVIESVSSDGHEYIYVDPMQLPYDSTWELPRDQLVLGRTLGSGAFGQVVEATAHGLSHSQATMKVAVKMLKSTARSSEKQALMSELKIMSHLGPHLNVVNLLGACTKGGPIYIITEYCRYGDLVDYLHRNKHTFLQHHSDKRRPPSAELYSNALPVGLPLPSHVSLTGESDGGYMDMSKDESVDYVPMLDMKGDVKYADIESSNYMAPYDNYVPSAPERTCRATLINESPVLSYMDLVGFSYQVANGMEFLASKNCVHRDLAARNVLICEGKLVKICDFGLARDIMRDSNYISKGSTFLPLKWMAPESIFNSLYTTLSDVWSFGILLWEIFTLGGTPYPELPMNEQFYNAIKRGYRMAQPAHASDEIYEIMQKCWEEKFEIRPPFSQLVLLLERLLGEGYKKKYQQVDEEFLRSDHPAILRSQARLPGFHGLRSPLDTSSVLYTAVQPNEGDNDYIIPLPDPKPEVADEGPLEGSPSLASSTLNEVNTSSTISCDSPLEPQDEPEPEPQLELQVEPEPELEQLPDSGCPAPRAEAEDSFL
Procedure: To confirm that the RGR peptide binds specifically to PDGFRβ, phage displaying this peptide were incubated with 293T cells overexpressing PDGFRβ. Recombinant 293T cells were prepared by transfecting with plasmids encoding PDGFRβ or VEGFR-2 (Borges et al., 2000) using Fugene transfection reagent (Roche Diagnostics). Briefly, 10 μg of plasmid was mixed with 700 μl of DMEM without serum and 30 μl of Fugene reagent, and incubated for 15 minutes at room temperature before adding the mixture to the cells. Forty-eight hours post-transfection the cells were detached from the culture plates using EDTA and washed once with PBS. Recombinant phage displaying the RSR, RGR peptides and control nonrecombinant phage (about 1×10^9 pfu) were incubated with the transfected cells for 2 hours at 4° C., followed by 5 washes with 1% BSA in PBS to remove the unbound phage. The bound phage were rescued by adding bacteria, and the binding efficiencies were determined by plaque assay.

Row | Substance | co-localization with MECA-32 or NG2 in adjacent exocrine pancreas or normal pancreatic islets [1] | co-localization with endothelial cell and pericyte markers in RIP1-Tag2 islet lesions [1] | localization in RIP1-Tag2 angiogenic islets [2] | localization in RIP1-Tag2 tumors [2] | localization in normal islets [2] | homing selectivity of purified peptides [2] | homing to normal islets, kidney, brain, liver, lung or spleen [2] | homing to HPV tumor [3] | homing to MDA tumor [4] | homing to TC3 tumor [5] | relative homing efficiencies in the various tumor models (category) [6] | homing class of individual phage (angiogenic islets or tumors in vivo) [7] | co-localization with PDGFRβ [8] | co-localization with PDGFRβ ([8]; listed as CRGRRST) | binding to PDGFRβ-transfected cells [9]
1 | CKAAKNK | no co-localization | some co-localization both with endothelial cell and pericyte markers; also recorded: co-localized both with the endothelial cell and pericyte markers | little or no localization | abundant localization | little or no localization | malignant solid tumors | did not appreciably home | did not home appreciably | homed | did not home appreciably | selectively home to RIP1-Tag2 tumors | tumor-selective |  |  | 
2 | CEYQLDVE [linear homing peptide] |  |  |  |  |  | highly selective for premalignant angiogenic islets | did not appreciably home |  |  |  |  | angiogenic islet-selective |  |  | 
3 | CRGRRST [linear homing peptide] | no co-localization | some co-localization both with endothelial cell and pericyte markers; also recorded: co-localized both with the endothelial cell and pericyte markers | localizes | localizes | little or no localization | both angiogenic islets and tumors | did not appreciably home | did not home appreciably | did not home appreciably | did not home appreciably | selectively home to RIP1-Tag2 tumors | home to both types of lesion | almost complete co-localization | co-localize | bind
4 | CKGAKAR |  |  |  |  |  | malignant solid tumors | did not appreciably home | homed |  | did not home appreciably | more general homing to other tumors in addition to RIP1-Tag2 | tumor-selective |  |  | 
5 | CRSRKG [linear homing peptide] | no co-localization | some co-localization both with endothelial cell and pericyte markers; also recorded: co-localized both with the endothelial cell and pericyte markers | abundant accumulation | little or no localization | little or no localization | highly selective for premalignant angiogenic islets | did not appreciably home | did not home appreciably | did not home appreciably | homed |  | angiogenic islet-selective |  |  | 
6 | VGVGEWSV |  |  |  |  |  |  |  | did not home appreciably |  | homed | more general homing to other tumors in addition to RIP1-Tag2 | tumor-selective |  |  | 
7 | FRVGVADV [linear homing peptide; homes to both types of lesion] |  |  |  |  |  | both angiogenic islets and tumors | did not appreciably home | did not home appreciably |  | did not home appreciably | selectively home to RIP1-Tag2 tumors | home to both types of lesion |  |  | 
